Experimental data as given in article PMC2709563 (Nucleic Acids Research, 2009).

Target: Klenow fragment of DNA polymerase I (Escherichia coli, UniProt P00582)
Experiment: competitive fluorescence anisotropy displacement of dtC^OTP
Assay type: binding

Sequence of Klenow fragment of DNA polymerase I (P00582 324-928 limits assumed): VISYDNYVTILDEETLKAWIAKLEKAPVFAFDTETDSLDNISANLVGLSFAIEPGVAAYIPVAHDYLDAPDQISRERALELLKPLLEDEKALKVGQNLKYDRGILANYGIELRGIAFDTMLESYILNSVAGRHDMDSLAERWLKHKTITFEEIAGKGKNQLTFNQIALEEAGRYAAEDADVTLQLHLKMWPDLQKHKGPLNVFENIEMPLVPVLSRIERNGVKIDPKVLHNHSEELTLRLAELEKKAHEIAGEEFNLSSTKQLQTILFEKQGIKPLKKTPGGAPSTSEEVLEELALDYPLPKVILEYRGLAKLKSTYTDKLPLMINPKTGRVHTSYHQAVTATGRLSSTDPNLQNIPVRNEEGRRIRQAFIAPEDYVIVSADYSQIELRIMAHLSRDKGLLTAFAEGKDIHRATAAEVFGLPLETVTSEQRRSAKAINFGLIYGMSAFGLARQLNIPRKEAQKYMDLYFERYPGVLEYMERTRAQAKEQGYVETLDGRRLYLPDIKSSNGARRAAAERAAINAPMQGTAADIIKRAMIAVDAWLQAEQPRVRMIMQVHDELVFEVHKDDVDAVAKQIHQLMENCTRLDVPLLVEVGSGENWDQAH

Nc1ccn([C@H]2C[C@H](O)[C@@H](COP(=O)(O)OP(=O)(O)OP(=O)(O)O)O2)c(=O)n1 [dCTP]
IC50: 3.4 µM
